# How the values were obtained:
# Format in all cases: cell-based
# TREM2 = molecular target: T1, TREM2 (Homo sapiens, UniProt Q9NZC2); assay: Liposome stimulation pSyk AlphaLISA, HEK293 overexpressing TREM2 and DAP12; settings: liposomes 30% lipid/70% PC (KLA 10%/90%), fold change over HBSS
# T1 construct: expressed in transfected cells
# Procedure: (§1) Lipids were purchased from Avanti Polar Lipids (Alabaster, Ala.) or Echelon Biosciences (Salt Lake City, Utah). Each screened lipid was resuspended in chloroform and added at 30 mole percent composition to 70 mole percent phosphatidylcholine (PC; 1,2-dioleoyl-sn-glycero-3-phosphocholine, Avanti Polar Lipids). Kdo2-Lipid A was added at a 10 mole percent composition with 90 mole percent PC. Lipid mixes were dried under nitrogen gas and resuspended in HBSS at a concentration of 4 mg/mL. Mixes were vortexed or briefly sonicated until resuspended, then bath sonicated for 1-5 minutes. Liposomes were used for 1-2 weeks. 3 independent batches of liposomes were used in experiments.
# (§2) HEK293 cell lines overexpressing TREM2 and DAP12, mutant TREM2-R47H and DAP12, or DAP12 alone were plated in 96-well PDL-coated plates at a density of 40,000 cells per well and cultured for 36-48 hours until 90-100% confluent.
# (§3) Cell culture medium was removed and cells were washed once with 200ul HBSS. Liposomes were diluted in HBSS in concentrations ranging from 0.03125 mg/mL to 2 mg/mL, then 50 μl was added to wells in 2-3 technical replicates per plate. Each plate contained HBSS negative control wells, 100% PC liposome control, 5 μg/mL agonist anti-TREM2 positive control (Abnova; Taiwan; # MAB2056), and 5 μg/mL mouse IgG3 isotype control (R&D Systems; Minneapolis, Minn.; # MAB007). Stimuli were incubated with cells for 5 minutes at 37° C., 5% CO2, liposomes were removed, and plates were frozen at −80° C.
# (§4) Cells were lysed for 30 minutes to 1 hour on ice in 50 ul/well Cell Lysis Buffer (Cell Signaling Technology; Danvers, Mass.; #9803) with 1 mM PMSF. AlphaLISA SureFire Ultra p-Syk Tyr525/526 assay kit (PerkinElmer, ALSU-PSYK-A10OK) was used to measure pSyk levels in lysate as per manufacturer protocol. 10 μl lysate was added to 384-well OptiPlates (PerkinElmer; #6007290) and an EnVision Multilabel Plate Reader (PerkinElmer) was used to measure AlphaLISA fluorescence.
# (§5) PSyk AlphaLISA fluorescence was converted to a log 2 scale. Fluorescence values from liposomes and controls were each subtracted from average fluorescence values from HBSS stimulated wells on the same plate (log 2(liposome)−log 2(HBSSave)=log 2(signal)). The result was converted back to a standard scale to measure fold change (2^log 2(signal)=fold change). Technical replicate fold changes values were averaged to obtain the fold change over background listed (pSyk FOB). Graphs represent values from independent experiments or individual human donors. Results from the screen on the HEK293 overexpressing cell lines are shown in Table 9 below and in FIG. 8A-8B. HEK293 results showing specificity for TREM2 over DAP12 expressed alone can be used to extrapolate which lipid species are likely acting as TREM2 ligands on human macrophages.
# DAP12 alone = molecular target: T2, DAP12 alone (Homo sapiens, UniProt O43914); assay: Liposome stimulation pSyk AlphaLISA, HEK293 expressing DAP12 alone; settings: liposomes 30% lipid/70% PC (KLA 10%/90%), fold change over HBSS
# T2 construct: expressed in transfected cells
# Procedure: as §1, §2, §3, §4, §5
# R47H TREM2 mutant = molecular target: T3, R47H TREM2 mutant (Homo sapiens, UniProt Q9NZC2, R47H); assay: Liposome stimulation pSyk AlphaLISA, HEK293 overexpressing TREM2-R47H and DAP12; settings: liposomes 30% lipid/70% PC (KLA 10%/90%), fold change over HBSS
# T3 construct: expressed in transfected cells
# Procedure: as §1, §2, §3, §4, §5
# [1] = tested on: primary human macrophages; assay: Liposome stimulation pSyk AlphaLISA, primary human macrophages; settings: liposomes 30% lipid/70% PC (KLA 10%/90%)
# Procedure: as §1
# 10 mL human blood was obtained from Blood Centers of the Pacific. Monocytes were extracted using RosetteSep Human Monocyte Enrichment Cocktail ([…] Technologies Inc.; Vancouver, BC; #15068) as per manufacturer protocols. Density gradient was performed with Ficoll-Paque Premium (GE Healthcare Life Sciences; Pittsburgh, Pa.; #17-5442-02). Isolated monocytes were resuspended at ˜1-1.3 million cells/mL and cultured for 5-6 days in RPMI, 10% Hyclone Fetal Bovine Serum, and penicillin/streptomycin supplemented with 50 ng/mL human M-CSF (Gibco, # PHC9501) in T175 tissue culture treated flasks. M-CSF was replenished every 2-3 days. Cells were washed once with PBS, 15 mL fresh medium was added, and cells were harvested by scraping. Cells were cultured overnight at a density of 100,000 cells per well on tissue culture treated 96-well plates supplemented with 10-25 ng/mL M-CSF.
# as §3, §4, §5
# T2 sequence (O43914 22-113): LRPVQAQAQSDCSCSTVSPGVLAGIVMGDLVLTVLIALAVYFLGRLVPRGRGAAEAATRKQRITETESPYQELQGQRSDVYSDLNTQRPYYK
# T1 sequence (Q9NZC2 19-230): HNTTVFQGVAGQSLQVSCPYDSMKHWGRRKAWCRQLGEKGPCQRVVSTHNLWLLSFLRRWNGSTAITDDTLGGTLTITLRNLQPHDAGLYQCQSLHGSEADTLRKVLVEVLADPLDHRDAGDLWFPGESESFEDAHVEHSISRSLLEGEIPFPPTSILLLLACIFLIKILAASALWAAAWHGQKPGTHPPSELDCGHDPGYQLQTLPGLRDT
# T1 sequence (O43914 22-113 partner): as the sequence (O43914 22-113) above
# T3 sequence (Q9NZC2 19-230 R47H): as the sequence (Q9NZC2 19-230) above, with R29H counted along it
# T3 sequence (O43914 22-113 partner): as the sequence (O43914 22-113) above
Human TREM2 (pSyk FOB) (TREM2),DAP12 alone (pSyk FOB) (DAP12 alone),R47H TREM2 mutant (pSyk FOB) (R47H TREM2 mutant),Molecule,pSyk FOB [1]
2.61 FOB,1.20 FOB,6.27 FOB,"C[C@H](CCCC(C)(C)O)[C@H]1CC[C@H]2[C@@H]3CC=C4C[C@@H](O)CC[C@]4(C)[C@H]3CC[C@]12C [25(S)hydroxycholesterol (25OHC), 25(S)hydroxycholesterol]",1.14 FOB
2.01 FOB,0.86 FOB,2.27 FOB,"CCCCCCCC/C=C\CCCCCCCC(=O)OC[C@H](COP(=O)([O-])OCC[N+](C)(C)C)OC(=O)CCCCCCC/C=C\CCCCCCCC [100% Phosphatidylcholine (PC), 1,2-dioleoyl-sn-glycero-3-phosphocholine, reference compound]",1.18 FOB
3.42 FOB,1.16 FOB,3.70 FOB,"CCCCCCCC(=O)OC[C@H](COP(=O)(O)OP(=O)(O)O)OC(=O)CCCCCCC [Diacylglycerol pyrophosphate (DGPP), Diacylglycerol pyrophosphate]",1.61 FOB
1.04 FOB,1.14 FOB,2.24 FOB,"CC(C)CCC[C@@H](C)[C@H]1CC[C@H]2[C@@H]3CC=C4C[C@@H](O)CC[C@]4(C)[C@H]3CC[C@]12C [Free cholesterol (FC), Free cholesterol]",1.44 FOB
1.09 FOB,0.71 FOB,1.07 FOB,"CCCCCCCCCCCCC/C=C/[C@@H](O)[C@@H](N)CO[C@@H]1O[C@H](CO)[C@H](O)[C@H](O)[C@H]1O [Galactosylsphingosine (GalSo), Galactosylsphingosine]",–
1.34 FOB,1.31 FOB,1.27 FOB,"CCCCCCCCCCCCC/C=C/[C@@H](O)[C@@H](N)CO[C@@H]1O[C@H](CO)[C@@H](O)[C@H](O)[C@H]1O [Glucosyl sphingosine (GlcSo), Glucosyl sphingosine]",2.05 FOB
0.76 FOB,1.26 FOB,1.39 FOB,CCCCCCCCCCCCCCC[C@@H](O)[C@@H](N)CO [Sphinganine],–
0.79 FOB,0.85 FOB,0.97 FOB,"CCCCCCCCCCCCCCCCCCCCCCCCCC(=O)N[C@@H](CO[C@H]1O[C@H](CO)[C@H](O)[C@H](O)[C@H]1O)[C@H](O)[C@H](O)CCCCCCCCCCCCCC [α-galactosylceramide (KRN7000), α-galactosylceramide]",–
1.17 FOB,1.55 FOB,1.83 FOB,Acyl Carnitine [Acyl Carnitine (AC)],–
1.20 FOB,0.68 FOB,0.68 FOB,Diacylglycerol 34:1 [Diacylglycerol 34:1 (DG34:1)],–
1.05 FOB,0.64 FOB,0.73 FOB,Diacylglycerol 38:4 [Diacylglycerol 38:4 (DG 38:4)],–
1.22 FOB,0.84 FOB,1.47 FOB,Dihyrdoceramide [Dihyrdoceramide (DhCer)],–
–,–,–,Glucosylceramide [Glucosylceramide (GlcCer)],1.58 FOB
1.26 FOB,1.14 FOB,1.47 FOB,Lysophosphatidylcholine [Lysophosphatidylcholine (LPC)],–
0.67 FOB,0.78 FOB,0.94 FOB,N-Acyl-phosphatidylethanolamine [N-Acyl-phosphatidylethanolamine (NAPE)],–
1.58 FOB,0.69 FOB,1.41 FOB,alkylacylglycerophosphocholine [alkylacylglycerophosphocholine (PAF)],–
1.81 FOB,0.67 FOB,1.46 FOB,lysoalkylacylglycerophosphocholine,–

Molecule,Human TREM2 (pSyk FOB) (TREM2),DAP12 alone (pSyk FOB) (DAP12 alone),R47H TREM2 mutant (pSyk FOB) (R47H TREM2 mutant),pSyk FOB [1]
CCCCCCCCCCCCCCCC(=O)OC[C@H](COP(=O)([O-])OCC[N+](C)(C)C)OC(=O)CCCC=O [1-palmitoyl-2-(5′-oxo-valeroyl)-sn-glycero-3-phosphocholine],0.86 FOB,1.34 FOB,1.57 FOB,–
"CCCCC/C=C\C/C=C\C/C=C\C/C=C\CCCC(=O)OC(CO)CO [2-Arachidonoylglycerol (2-AG), 2-Arachidonoylglycerol]",0.68 FOB,1.11 FOB,0.84 FOB,1.23 FOB
"CC(C)CCC[C@@H](C)[C@H]1CC[C@H]2[C@@H]3C(=O)C=C4C[C@@H](O)CC[C@]4(C)[C@H]3CC[C@]12C [7-ketocholesterol (7-KC), 7-ketocholesterol]",1.10 FOB,1.36 FOB,3.42 FOB,1.18 FOB
"CC(C)[C@@H](O)CC[C@@H](C)[C@H]1CC[C@H]2[C@@H]3CC=C4C[C@@H](O)CC[C@]4(C)[C@H]3CC[C@]12C [24(S)hydroxycholesterol (24OHC), 24(S)hydroxycholesterol]",4.50 FOB,1.57 FOB,8.44 FOB,1.56 FOB
"C[C@@H](CO)CCC[C@@H](C)[C@H]1CC[C@H]2[C@@H]3CC=C4C[C@@H](O)CC[C@]4(C)[C@H]3CC[C@]12C [27-hydroxycholesterol (27OHC), 27-hydroxycholesterol]",5.26 FOB,1.36 FOB,9.25 FOB,1.72 FOB
"CC(C)CCC[C@@H](C)[C@H]1CC[C@H]2[C@@H]3CC=C4C[C@@H](OP(=O)(O)O)CC[C@]4(C)[C@H]3CC[C@]12C [Cholesterol phosphate (CP), Cholesterol phosphate]",2.43 FOB,1.27 FOB,3.09 FOB,1.18 FOB
"CCCCCCCCCCCCCC(=O)O[C@H](CCCCCCCCCCC)CC(=O)O[C@@H]1[C@@H](NC(=O)C[C@@H](CCCCCCCCCCC)OC(=O)CCCCCCCCCCC)[C@H](OC[C@H]2O[C@H](OP(=O)(O)O)[C@H](NC(=O)C[C@H](O)CCCCCCCCCCC)[C@@H](OC(=O)C[C@H](O)CCCCCCCCCCC)[C@@H]2O)O[C@H](CO[C@]2(C(=O)O)C[C@@H](O[C@]3(C(=O)O)C[C@@H](O)[C@@H](O)[C@@H]([C@H](O)CO)O3)[C@@H](O)[C@@H]([C@H](O)CO)O2)[C@H]1OP(=O)(O)O [Kdo2-Lipid A (KLA), Kdo2-Lipid A]",5.15 FOB,1.25 FOB,6.65 FOB,2.73 FOB
"CCCCCCCCCCCCC/C=C/[C@@H](O)[C@@H](N)COP(=O)([O-])OCC[N+](C)(C)C [Lysosphingomyelin (LSM), Lysosphingomyelin]",0.67 FOB,1.03 FOB,0.85 FOB,1.26 FOB
